Each molecule was assayed against human APJ receptor (Homo sapiens (Human), UniProt P35414) (assay: Intracellular cAMP accumulation assay (APJ hcAMP, HTRF)). Details: HEK293 cells stably expressing human APJ receptor; inhibition of forskolin-mediated cAMP production; read-out: Human APJ cAMP EC50 Potency range.
Format: cell-based
Summary of the method: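 HEK293 cells stably expressing human APJ, 5,000 per well, incubated 30 min at rt with compound, […] and 2 μM forskolin. cAMP measured by HTRF against a cAMP standard curve as inhibition of forskolin-driven production. EC50 from variable-slope sigmoidal fit.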

Chain of human APJ receptor (P35414 whole entry): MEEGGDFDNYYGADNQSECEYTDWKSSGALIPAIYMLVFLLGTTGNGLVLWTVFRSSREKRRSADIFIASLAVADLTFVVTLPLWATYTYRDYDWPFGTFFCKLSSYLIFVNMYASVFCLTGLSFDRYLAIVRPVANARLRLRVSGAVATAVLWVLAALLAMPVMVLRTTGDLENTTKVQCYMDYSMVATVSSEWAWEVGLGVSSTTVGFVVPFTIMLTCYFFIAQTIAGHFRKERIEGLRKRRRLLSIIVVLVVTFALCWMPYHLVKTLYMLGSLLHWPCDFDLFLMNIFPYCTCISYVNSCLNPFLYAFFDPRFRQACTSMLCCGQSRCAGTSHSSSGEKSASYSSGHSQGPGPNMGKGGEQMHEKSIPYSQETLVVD

Compound | EC50 [nM]
CCCCc1nc(=O)c(S(=O)(=O)c2ccc(-c3cccc(C#N)c3C)cc2)c(O)n1[C@@H](CC)c1cccc(C#N)c1 [Example 492, 4′-({2-butyl-1-[(1S)-1-(3-cyanophenyl)propyl]-6-hydroxy-4-oxo-1,4-dihydropyrimidin-5-yl}sulfonyl)-2-methyl-[1,1′-biphenyl]-3-carbonitrile] | 0.01 to 10
CCCCc1nc(=O)c(S(=O)(=O)c2ccc(-c3cc(C#N)ccc3C)cc2)c(O)n1[C@@H](CC)c1cccc(C#N)c1 [Example 493, 4′-({2-butyl-1-[(1S)-1-(3-cyanophenyl)propyl]-6-hydroxy-4-oxo-1,4-dihydropyrimidin-5-yl}sulfonyl)-6-methyl-[1,1′-biphenyl]-3-carbonitrile] | 0.01 to 10
CCCCc1nc(=O)c(S(=O)(=O)c2ccc(-c3ccc(F)cc3C(N)=O)cc2)c(O)n1[C@@H](CC)c1cccc(C#N)c1 [Example 494, 4′-({2-butyl-1-[(1S)-1-(3-cyanophenyl)propyl]-6-hydroxy-4-oxo-1,4-dihydropyrimidin-5-yl}sulfonyl)-4-fluoro-[1,1′-biphenyl]-2-carboxamide] | 0.01 to 10
CCCCc1nc(=O)c(S(=O)(=O)c2ccc(-c3c[nH]nc3C)cc2)c(O)n1[C@@H](CC)c1cccc(C#N)c1 [Example 495, 3-[(1S)-1-{2-butyl-6-hydroxy-5-[4-(3-methyl-1H-pyrazol-4-yl)benzenesulfonyl]-4-oxo-1,4-dihydropyrimidin-1-yl}propyl]benzonitrile] | 0.01 to 10
Cc1cnccc1-c1ccc(S(=O)(=O)c2c(O)n([C@H](c3cccc(C#N)c3)C3CC3)c(CC3CC3)nc2=O)cc1 [Example 496, 3-[(S)-cyclopropyl[2-(cyclopropylmethyl)-6-hydroxy-5-[4-(3-methylpyridin-4-yl)benzenesulfonyl]-4-oxo-1,4-dihydropyrimidin-1-yl]methyl]benzonitrile] | 0.01 to 10
Cc1ncccc1-c1ccc(S(=O)(=O)c2c(O)n([C@H](c3cccc(C#N)c3)C3CC3)c(CC3CC3)nc2=O)cc1 [Example 497, 3-[(S)-cyclopropyl[2-(cyclopropylmethyl)-6-hydroxy-5-[4-(2-methylpyridin-3-yl)benzenesulfonyl]-4-oxo-1,4-dihydropyrimidin-1-yl]methyl]benzonitrile] | 0.01 to 10
Cc1c(-c2ccc(S(=O)(=O)c3c(O)n([C@H](c4cccc(C#N)c4)C4CC4)c(CC4CC4)nc3=O)cc2)ccnc1F [Example 498, 3-[(S)-cyclopropyl[2-(cyclopropylmethyl)-5-[4-(2-fluoro-3-methylpyridin-4-yl)benzenesulfonyl]-6-hydroxy-4-oxo-1,4-dihydropyrimidin-1-yl]methyl]benzonitrile] | 0.01 to 10
Cc1nc(F)ccc1-c1ccc(S(=O)(=O)c2c(O)n([C@H](c3cccc(C#N)c3)C3CC3)c(CC3CC3)nc2=O)cc1 [Example 499, 3-[(S)-cyclopropyl[2-(cycIopropylmethyl)-5-[4-(6-fluoro-2-methylpyridin-3-yl)benzenesulfonyl]-6-hydroxy-4-oxo-1,4-dihydropyrimidin-1-yl]methyl]benzonitrile] | 0.01 to 10

Further lines, results first:

EC50 [nM] | Compound
0.01 to 10 | N#Cc1cccc([C@H](C2CC2)n2c(CC3CC3)nc(=O)c(S(=O)(=O)c3ccc(-c4ccc(F)cc4C(N)=O)cc3)c2O)c1 [Example 500, 4′-({1-[(S)-(3-cyanophenyl)(cyclopropyl)methyl]-2-(cyclopropylmethyl)-6-hydroxy-4-oxo-1,4-dihydropyrimidin-5-yl}sulfonyl)-4-fluoro-[1,1′-biphenyl]-2-carboxamide]
0.01 to 10 | CCCCc1nc(=O)c(S(=O)(=O)c2ccc(-c3ccccc3C(=O)OC)cc2)c(O)n1[C@@H](CC)c1cccc(C#N)c1 [Example 501, methyl 4′-({2-butyl-1-[(1S)-1-(3-cyanophenyl)propyl]-6-hydroxy-4-oxo-1,4-dihydropyrimidin-5-yl}sulfonyl)-[1,1′-biphenyl]-2-carboxylate]
0.01 to 10 | CC[C@@H](c1cc(F)cc(C#N)c1)n1c(CC2CC2)nc(=O)c(S(=O)(=O)c2ccc(-c3ccccc3C(N)=O)cc2)c1O [Example 502, 4′-({1-[(1S)-1-(3-cyano-5-fluorophenyl)propyl]-2-(cyclopropylmethyl)-6-hydroxy-4-oxo-1,4-dihydropyrimidin-5-yl}sulfonyl)-[1,1′-biphenyl]-2-carboxamide]
0.01 to 10 | CCCCc1nc(=O)c(S(=O)(=O)c2ccc(-c3ccc(F)nc3F)cc2)c(O)n1[C@@H](CC)c1cccc(C#N)c1 [Example 503, 3-[(1S)-1-{2-butyl-5-[4-(2,6-difluoropyridin-3-yl)benzenesulfonyl]-6-hydroxy-4-oxo-1,4-dihydropyrimidin-1-yl}propyl]benzonitrile]
0.01 to 10 | CCCCc1nc(=O)c(S(=O)(=O)c2ccc(-c3cccn(C)c3=O)cc2)c(O)n1[C@@H](CC)c1cccc(C#N)c1 [Example 504, 3-[(1S)-1-{2-butyl-6-hydroxy-5-[4-(1-methyl-2-oxo-1,2-dihydropyridin-3-yl)benzenesulfonyl]-4-oxo-1,4-dihydropyrimidin-1-yl}propyl]benzonitrile]
0.01 to 10 | CCCCc1nc(=O)c(S(=O)(=O)c2ccc(-c3cccnc3F)cc2)c(O)n1[C@@H](CC)c1cccc(C#N)c1 [Example 505, 3-[(1S)-1-{2-butyl-5-[4-(2-fluoropyridin-3-yl)benzenesulfonyl]-6-hydroxy-4-oxo-1,4-dihydropyrimidin-1-yl}propyl]benzonitrile]
0.01 to 10 | CCCCc1nc(=O)c(S(=O)(=O)c2ccc(-c3ccnc(F)c3F)cc2)c(O)n1[C@@H](CC)c1cccc(C#N)c1 [Example 506, 3-[(1S)-1-{2-butyl-5-[4-(2,3-difluoropyridin-4-yl)benzenesulfonyl]-6-hydroxy-4-oxo-1,4-dihydropyrimidin-1-yl}propyl]benzonitrile]
0.01 to 10 | CCCCc1nc(=O)c(S(=O)(=O)c2ccc(-c3ccccc3C(=O)NC)cc2)c(O)n1[C@@H](CC)c1cccc(C#N)c1 [Example 507, 4′-({2-butyl-1-[(1S)-1-(3-cyanophenyl)propy1]-6-hydroxy-4-oxo-1,4-dihydropyrimidin-5-yl}sulfonyl)-N-methyl-[1,1′-biphenyl]-2-carboxamide]
0.01 to 10 | CCCCc1nc(=O)c(S(=O)(=O)c2ccc(-c3cnc(OC)nc3OC)cc2)c(O)n1[C@@H](CC)c1cccc(C#N)c1 [Example 508, 3-[(1S)-1-{2-butyl-5-[4-(2,4-dimethoxypyrimidin-5-yl)benzenesulfonyl]-6-hydroxy-4-oxo-1,4-dihydropyrimidin-1-yl}propyl]benzonitrile]
0.01 to 10 | CCCCc1nc(=O)c(S(=O)(=O)c2ccc(-c3cccnc3C(N)=O)cc2)c(O)n1[C@@H](CC)c1cccc(C#N)c1 [Example 509, 3-[4-({2-butyl-1-[(1S)-1-(3-cyanophenyl)propyl]-6-hydroxy-4-oxo-1,4-dihydropyrimidin-5-yl}sulfonyl)phenyl] pyridine-2-carboxamide]
0.01 to 10 | CCCCc1nc(=O)c(S(=O)(=O)c2ccc(-c3ccnc4[nH]ccc34)cc2)c(O)n1[C@@H](CC)c1cccc(C#N)c1 [Example 510, 3-[(1S)-1-[2-buty1-6-hydroxy-4-oxo-5-(4-{1H-pyrrolo[2,3-b]pyridin-4-yl}benzenesulfonyl)-1,4-dihydropyrimidin-1-yl]propyl]benzonitrile]
